Source: ChEMBL document CHEMBL1145521, “Lenalidomide inhibits the malignant clone and up-regulates the SPARC gene mapping to the commonly deleted region in 5q- syndrome patients” (2007)
Calls of active or inactive are those of the source. No cut-off for these calls is given here.

What was measured:
[1] = Down-regulation of AMMECR1 gene expression in healthy human erythroblasts after 7 days relative to control; assay type: functional
[2] = Upregulation of CHI3L1 gene expression in erythroblasts from myelodysplastic syndrome del(5q) patient after 7 days relative to control; assay type: functional; settings: Homo sapiens
[3] = Upregulation of MAOA gene expression in erythroblasts from myelodysplastic syndrome del(5q) patient after 7 days relative to control; assay type: functional; settings: Homo sapiens
[4] = Upregulation of TPBG gene expression in erythroblasts from myelodysplastic syndrome del(5q) patient after 7 days relative to control; assay type: functional; settings: Homo sapiens
[5] = Increase in SPARC gene expression in CD34- mononuclear cells from del(5q) myelodysplastic syndrome patient by RT-PCR after 7 days relative to control
[6] = Upregulation of MAOA gene expression in healthy human erythroblasts after 7 days relative to control; assay type: functional
[7] = Upregulation of DSC2 gene expression in healthy human erythroblasts after 7 days relative to control; assay type: functional
[8] = Down-regulation of HBB gene expression in erythroblasts from myelodysplastic syndrome del(5q) patient after 7 days relative to control; assay type: functional; settings: Homo sapiens
[9] = Down-regulation of TUBB2 gene expression in healthy human erythroblasts after 7 days relative to control; assay type: functional
[10] = Down-regulation of HBG2 gene expression in healthy human erythroblasts after 7 days relative to control; assay type: functional
[11] = Down-regulation of LRP11 gene expression in erythroblasts from myelodysplastic syndrome del(5q) patient after 7 days relative to control; assay type: functional; settings: Homo sapiens
Homo sapiens [12] = species on record: Homo sapiens; assay: Growth inhibition of CD34+ progenitor cells from non-del(5q) myelodysplastic syndrome patient after 14 days; assay type: functional
[13] = Upregulation of INHBA gene expression in healthy human erythroblasts after 7 days relative to control; assay type: functional
[14] = Upregulation of PRG3 gene expression in healthy human erythroblasts after 7 days relative to control; assay type: functional
[15] = Upregulation of CYP4F3 gene expression in healthy human erythroblasts after 7 days relative to control; assay type: functional
Homo sapiens [16] = species on record: Homo sapiens; assay: Inhibition of cell proliferation of human bone marrow mononuclear cells assessed as [3H]thymidine incorporation upto 500 uM after 4 days; assay type: functional
[17] = Down-regulation of HBA2 gene expression in erythroblasts from myelodysplastic syndrome del(5q) patient after 7 days relative to control; assay type: functional; settings: Homo sapiens
[18] = Upregulation of PPIC gene expression in erythroblasts from myelodysplastic syndrome del(5q) patient after 7 days relative to control; assay type: functional; settings: Homo sapiens
[19] = Upregulation of SPARC gene expression in erythroblasts from myelodysplastic syndrome del(5q) patient after 7 days relative to control; assay type: functional; settings: Homo sapiens
[20] = Upregulation of VSIG4 gene expression in erythroblasts from myelodysplastic syndrome del(5q) patient after 7 days relative to control; assay type: functional; settings: Homo sapiens
[21] = Down-regulation of HBG2 gene expression in erythroblasts from myelodysplastic syndrome del(5q) patient after 7 days relative to control; assay type: functional; settings: Homo sapiens
[22] = Down-regulation of KLF1 gene expression in erythroblasts from myelodysplastic syndrome del(5q) patient after 7 days relative to control; assay type: functional; settings: Homo sapiens
[23] = Down-regulation of GYPB gene expression in erythroblasts from myelodysplastic syndrome del(5q) patient after 7 days relative to control; assay type: functional; settings: Homo sapiens
[24] = Down-regulation of ALAS2 gene expression in erythroblasts from myelodysplastic syndrome del(5q) patient after 7 days relative to control; assay type: functional; settings: Homo sapiens
Homo sapiens [25] = species on record: Homo sapiens; assay: Inhibition of cell proliferation of CD34+ progenitor cells from myelodysplastic syndrome del(5q) patient after 14 days; assay type: functional
[26] = Down-regulation of GYPE gene expression in erythroblasts from myelodysplastic syndrome del(5q) patient after 7 days relative to control; assay type: functional; settings: Homo sapiens
[27] = Down-regulation of KLF1 gene expression in healthy human erythroblasts after 7 days relative to control; assay type: functional
[28] = Decrease in erythroid differentiation of CD34+ progenitor cells from myelodysplastic syndrome del(5q) patient assessed as glycophorin A expression after 14 days; assay type: functional; settings: Homo sapiens
[29] = Upregulation of INHBA gene expression in erythroblasts from myelodysplastic syndrome del(5q) patient after 7 days relative to control; assay type: functional; settings: Homo sapiens
[30] = Down-regulation of SPTA1 gene expression in healthy human erythroblasts after 7 days relative to control; assay type: functional
[31] = Upregulation of DSC2 gene expression in erythroblasts from myelodysplastic syndrome del(5q) patient after 7 days relative to control; assay type: functional; settings: Homo sapiens
[32] = Upregulation of RTN1 gene expression in healthy human erythroblasts after 7 days relative to control; assay type: functional
[33] = Upregulation of SEC14L5 gene expression in erythroblasts from myelodysplastic syndrome del(5q) patient after 7 days relative to control; assay type: functional; settings: Homo sapiens
[34] = Upregulation of CXCL1 gene expression in healthy human erythroblasts after 7 days relative to control; assay type: functional
[35] = Down-regulation of ALAS2 gene expression in healthy human erythroblasts after 7 days relative to control; assay type: functional
[36] = Down-regulation of CXADR gene expression in healthy human erythroblasts after 7 days relative to control; assay type: functional
[37] = Down-regulation of HBA1 gene expression in healthy human erythroblasts after 7 days relative to control; assay type: functional
[38] = Upregulation of CHI3L1 gene expression in healthy human erythroblasts after 7 days relative to control; assay type: functional
[39] = Down-regulation of GYPA gene expression in healthy human erythroblasts after 7 days relative to control; assay type: functional
[40] = Down-regulation of GYPE gene expression in healthy human erythroblasts after 7 days relative to control; assay type: functional
[41] = Upregulation of PPIC gene expression in healthy human erythroblasts after 7 days relative to control; assay type: functional
[42] = Down-regulation of THRB gene expression in healthy human erythroblasts after 7 days relative to control; assay type: functional
[43] = Down-regulation of HBBP1 gene expression in healthy human erythroblasts after 7 days relative to control; assay type: functional
[44] = Upregulation of CYP4F3 gene expression in erythroblasts from myelodysplastic syndrome del(5q) patient after 7 days relative to control; assay type: functional; settings: Homo sapiens
[45] = Down-regulation of HBA1 gene expression in erythroblasts from myelodysplastic syndrome del(5q) patient after 7 days relative to control; assay type: functional; settings: Homo sapiens
[46] = Upregulation of ANGPT2 gene expression in healthy human erythroblasts after 7 days relative to control; assay type: functional
[47] = Down-regulation of THRB gene expression in erythroblasts from myelodysplastic syndrome del(5q) patient after 7 days relative to control; assay type: functional; settings: Homo sapiens
[48] = Upregulation of PRG3 gene expression in erythroblasts from myelodysplastic syndrome del(5q) patient after 7 days relative to control; assay type: functional; settings: Homo sapiens
[49] = Upregulation of DEFA1 gene expression in healthy human erythroblasts after 7 days relative to control; assay type: functional
[50] = Upregulation of VSIG4 gene expression in healthy human erythroblasts after 7 days relative to control; assay type: functional
[51] = Down-regulation of HBB gene expression in healthy human erythroblasts after 7 days relative to control; assay type: functional
[52] = Upregulation of TPBG gene expression in healthy human erythroblasts after 7 days relative to control; assay type: functional
[53] = Increase in SPARC gene expression in erythroid progenitor cells from non-del(5q) myelodysplastic syndrome patient by RT-PCR after 7 days relative to control; assay type: functional, Homo sapiens
[54] = Increase in activin A gene expression in CD34- mononuclear cells from del(5q) myelodysplastic syndrome patient by RT-PCR after 2 days relative to control
[55] = Down-regulation of HBA2 gene expression in healthy human erythroblasts after 7 days relative to control; assay type: functional
[56] = Upregulation of DEFA1 gene expression in erythroblasts from myelodysplastic syndrome del(5q) patient after 7 days relative to control; assay type: functional; settings: Homo sapiens
[57] = Down-regulation of GYPB gene expression in healthy human erythroblasts after 7 days relative to control; assay type: functional
[58] = Decrease in erythroid differentiation of CD34+ progenitor cells from myelodysplastic syndrome del(5q) patient assessed as CD36 expression after 14 days; assay type: functional; settings: Homo sapiens
[59] = Upregulation of ANGPT2 gene expression in erythroblasts from myelodysplastic syndrome del(5q) patient after 7 days relative to control; assay type: functional; settings: Homo sapiens
[60] = Down-regulation of LRP11 gene expression in healthy human erythroblasts after 7 days relative to control; assay type: functional
[61] = Down-regulation of HBBP1 gene expression in erythroblasts from myelodysplastic syndrome del(5q) patient after 7 days relative to control; assay type: functional; settings: Homo sapiens
[62] = Increase in activin A gene expression in CD34- mononuclear cells from del(5q) myelodysplastic syndrome patient by RT-PCR after 7 days relative to control
[63] = Upregulation of RTN1 gene expression in erythroblasts from myelodysplastic syndrome del(5q) patient after 7 days relative to control; assay type: functional; settings: Homo sapiens
[64] = Upregulation of SEC14L5 gene expression in healthy human erythroblasts after 7 days relative to control; assay type: functional
[65] = Upregulation of CXCL1 gene expression in erythroblasts from myelodysplastic syndrome del(5q) patient after 7 days relative to control; assay type: functional; settings: Homo sapiens
[66] = Increase in SPARC gene expression in CD34- mononuclear cells from del(5q) myelodysplastic syndrome patient by RT-PCR after 2 days relative to control
[67] = Down-regulation of CXADR gene expression in erythroblasts from myelodysplastic syndrome del(5q) patient after 7 days relative to control; assay type: functional; settings: Homo sapiens
[68] = Decrease in myeloid differentiation of CD34+ progenitor cells from myelodysplastic syndrome del(5q) patient assessed as CD33 expression after 14 days; assay type: functional; settings: Homo sapiens
[69] = Down-regulation of AMMECR1 gene expression in erythroblasts from myelodysplastic syndrome del(5q) patient after 7 days relative to control; assay type: functional; settings: Homo sapiens
[70] = Increase in activin A gene expression in erythroid progenitor cells from non-del(5q) myelodysplastic syndrome patient by RT-PCR after 7 days relative to control; assay type: functional, Homo sapiens
[71] = Down-regulation of SPTA1 gene expression in erythroblasts from myelodysplastic syndrome del(5q) patient after 7 days relative to control; assay type: functional; settings: Homo sapiens
[72] = Down-regulation of GYPA gene expression in erythroblasts from myelodysplastic syndrome del(5q) patient after 7 days relative to control; assay type: functional; settings: Homo sapiens
[73] = Upregulation of SPARC gene expression in healthy human erythroblasts after 7 days relative to control; assay type: functional
[74] = Down-regulation of TUBB2 gene expression in erythroblasts from myelodysplastic syndrome del(5q) patient after 7 days relative to control; assay type: functional; settings: Homo sapiens
[75] = Growth inhibition of CD34- mononuclear cells from myelodysplastic syndrome del(5q-) patient by FISH after 7 days; assay type: functional, Homo sapiens

For `Nc1cccc2c1CN(C1CCC(=O)NC1=O)C2=O` (stereo not given) [LENALIDOMIDE], the Fold change [1] was -3.2, the Fold change [2] was 6.1 and the Fold change [3] was 3.9. It also gave a Fold change [4] of 4.1, a Fold change [5] of 5.8 and a Fold change [6] of 2.1. It also gave a Fold change [7] of 3.6, a Fold change [8] of 7.7 and a Fold change [9] of 13.9. The Fold change [10] was -1.4, the Fold change [11] was 2.4 and the Activity (Homo sapiens [12]) was “Active”. It also gave a Fold change [13] of 2.5, a Fold change [14] of 1.7 and a Fold change [15] of 3.5. For the same molecule, the Activity (Homo sapiens [16]) was “inactive”, the Fold change [17] was 11 and the Fold change [18] was 5.2. It also gave a Fold change [19] of 4.1, a Fold change [20] of 9.5 and a Fold change [21] of -4.4. The Fold change [22] was 3.7, the Fold change [23] was 3.6 and the Fold change [24] was 3.3. The Activity (Homo sapiens [25]) was “Active”, the Fold change [26] was 3 and the Fold change [27] was 3.4. For the same molecule, the Activity [28] was “Active”, the Fold change [29] was 4.9 and the Fold change [30] was 4.8. For the same molecule, the Fold change [31] was 3, the Fold change [32] was 5.4 and the Fold change [33] was 2.8. It also gave a Fold change [34] of 2.9, a Fold change [35] of 7.6 and a Fold change [36] of 5.9. It also gave a Fold change [37] of 11.1, a Fold change [38] of 10.3 and a Fold change [39] of 9.1. It also gave a Fold change [40] of 2.2, a Fold change [41] of 10.9 and a Fold change [42] of 2. For the same molecule, the Fold change [43] was 2.8, the Fold change [44] was 3.1 and the Fold change [45] was 8.5. For the same molecule, the Fold change [46] was 1.9, the Fold change [47] was 2.8 and the Fold change [48] was 2.9. For the same molecule, the Fold change [49] was 16.3, the Fold change [50] was 9.5 and the Fold change [51] was 3.4. It also gave a Fold change [52] of 5.4, a Fold change [53] of 9.3 and a Fold change [54] of 2.5. It also gave a Fold change [55] of 9.7, a Fold change [56] of 8.9 and a Fold change [57] of 2.9. For the same molecule, the Activity [58] was “Active”, the Fold change [59] was 3.3 and the Fold change [60] was 4.8. For the same molecule, the Fold change [61] was 4.9, the Fold change [62] was 2.6 and the Fold change [63] was 3.5. The Fold change [64] was 3.6, the Fold change [65] was 4.1 and the Fold change [66] was 8.1. For the same molecule, the Fold change [67] was 3.6, the Activity [68] was “Active” and the Fold change [69] was 2.9. For the same molecule, the Fold change [70] was 12.6, the Fold change [71] was 4.5 and the Fold change [72] was 3.7. For the same molecule, the Fold change [73] was 4.8, the Fold change [74] was 8.2 and the “growth inhibition (GI)” value [75] was 65%.
